From patent US20230190887A1, “TARGETING G3BP AGGREGATION TO PREVENT NEURODEGENERATION” (priority 2019, published 2023)

What was measured:
[1] = tested on: E18 cortical neurons; assay: Aβ-induced neurite degeneration of cortical neurons; type: cell-based, rat; conditions: DIV7 E18 cortical neurons, 1 μM Aβ oligomer 16-18 hours, with 10 μM peptide
Protocol: To test whether the triggering disassembly of stress granules would be protective in Parkinson's and Alzheimer's disease, the inventors employed 1-methyl-4-phenylpyridinium (MPP+)-induced and amyloid β (Aβ)-mediated neurotoxicity models. Rat embryonic day 18 (E18) midbrain neurons cultured for 7 days were treated for 16-18 hours with 100 μM MPP+, see FIGS. 1A and B, while E18 cortical neurons were treated with 1 μM Aβ oligomer, see FIGS. 2A-2B, with or without 10 μM G3BP1 190-208 or 168-189 peptide. As a control, the inventors used non-treated neurons.
FIG. 2: Cell permeable G3BP1 190-208 peptide blocks pathological degeneration beta-amyloid-induced neurotoxicity in cortical neurons. (A) Representative images of NF-labeled (white) E18 cortical neurons. DIV7 cortical neurons were treated with […] (ii) or control (i) and 10 μM 190-208 G3BP1 peptide (iv) or 10 μM 168-189 control peptide (iii) [scale bar=100 μm]. (B) Quantitation of degeneration in cortical neurons treated with 1 μM Aβpeptide-treated neurons after addition of 190-208 G3BP1 or 168-189 control peptide. Solvent treated cells were used as control. […] (N≥95 over 3 cultures; by one-way ANOVA with Tukey HSD post-hoc).

[2] = tested on: TIA1, G3BP1 and TDP43 granules in E12.5 motor neurons; assay: Stress granule protein granules in neurites of arsenite-treated motor neurons; type: cell-based, mouse; conditions: sodium arsenite 0.5 mM 30 minutes, then 10 μM peptide; for number of flag-TDP43 granules greater than 2 μm^2 per 100 μm of neurite: WT and ALS mutant flag-TDP43; for number of large TIA1-GFP granules (>2 μm^2) in neurites: WT and mutant TIA1-GFP
From the text: To further evaluate whether mutant TIA1 and TDP43 protein aggregates are affected by G3BP1 190-208 peptide, the inventors expressed the mutant proteins in embryonic motor neurons and assessed granules formed in neurites with or without arsenite treatment either in the presence of G3BP1 190-208 or control 168-189 peptide.
FIG. 6: Cell permeable G3BP1 190-208 peptide decreases granules formed by endogenous TIA1 and TDP43 and exogenous TDP43 and TIA1 mutants in motor neurons after sodium arsenite exposure. (A) Embryonic motor neurons isolated from E12.5 mouse embryos were exposed to sodium arsenite (0.5 mM) for 30 minutes and then treated with 10 μM 190- 208 or […] peptide. After fixation endogenous TIA1 was visualized by immunostaining. The number of TIA1 granules greater than 2 μm^2 per 100 μm of neurite were measured. (B) E12.5 motor neurons were treated as described in (A) and immunostaining was used to detect endogenous G3BP1 protein. The number of G3BP1 granules greater than 2 μm^2 per 100 μm of neurite were measured. […] (C) E12.5 motor neurons expressing TIA1-GFT or ALS/FTD-associated mutants TIA1-A381T, TIA1-E384K were treated with sodium arsenite (0.5 mM) for 30 minutes followed by treatment with either 10 μM 190-208 G3BP1 or 168-189 control peptide. The number of cells containing TIA1-GFP puncta were measured 2 μm^2 per 100 μm of neurite and results are reported relative to non-treated controls. The number of TIA1-GFP granules in neurites decreased for WT and ALS/FTD mutants after treatment with 190-208 G3BP1 as compared to the 168-189 control peptide treated cells. (I)) E12.5 motor neurons expressing flag-tagged wildtype TDP43 or ALS-associated mutants TDP43-M337V and TDP43-Q331.K were treated with sodium arsenite (0.5 mM) for 30 minutes followed by treatment with either 10 μM 190-208 G3BP1 or 168189 control peptide. Flag-TDP43 was detected by immunostaining using the anti-flag-antibody. The number of flag-TDP43 granules greater than 2 μm^2 were measured per 100 μm of neurite and the results are reported relative to non-treated controls. The number of Flag-TDP43 granules in neurites were decreased after treatment with 190-208 G3BP1 peptide as compared to the 168-189 control peptide in both WT and ALS/FTD mutants expressing cells. ([…] over 3 cultures; by two-way ANOVA with Tukey HSD post-hoc),

[3] = tested on: axonal protein synthesis in DRG neurons; assay: Puromycinylation assay of axonal protein synthesis; type: cell-based, rat; conditions: compared to untreated and 168-189 peptide-treated cultures
Protocol: Puromycinylation assay. To visualize newly synthesized proteins in cultured neurons, the inventors used the Click-iT® Plus OPP Protein Synthesis Assay Kit per manufacturer's instructions (Invitrogen/Life Technologies). Briefly, 3 DIV cultures were incubated with 20 μM0-propargyl-puromycin (OPP) for 30 min at 37° C. OPP labeled proteins were detected by crosslinking with Alexa Fluor-594 picolyl azide molecule. Coverslips were then mounted with Prolong Gold Antifade (Invitrogen) and imaged with Leica DMI6000 epifluorescent microscope as above. ImageJ was used to quantify the Puromycinylation signals in distal axons and cell bodies.

[4] = tested on: G3BP1-mCherry aggregates in DRG axons; assay: Live cell imaging of G3BP1-mCherry granules; type: cell-based, rat; conditions: 10 μM peptide, 15 min
Protocol: Live cell imaging for G3BP1-mCherry granules. DRG neurons were transfected with G3BP1-mCherry, and 36 h later distal axons were imaged using Leica SP8X confocal microscope with environmental chamber maintained at 37° C., 5% CO2 (with 63×/1.4 NA oil immersion objective). G3BP1-mCherry signals were imaged as single optical planes in the axon shaft every 2 s for 100 frames (at 540 nm excitation and 23% white light laser power; 565-597 nm emission). To study the effect of the G3BP1 190-208 or 168-189 peptide, 10 μM FITC-conjugated peptide was added to the media and 15 min later imaging was continued.
For quantitation of G3BP1-mCherry aggregates density and size, a 100 μm of the axon shaft was considered (≥200 μm from cell body). Thresholding was applied to acquired image sequences using ImageJ to generate binary masks.
ImageJ particle analyzer was used for analysis. G3BP1 aggregates with area≥1 μm^2 were considered as SG-like structures. For analyzing the G3BP1 aggregate velocity, ImageJ Trackmate plug-in was used.

[5] = tested on: primary MNs

YGNKKNNNQNNN-VVEPEPEPEPEPEPEPVSE [G3BP1 190-208 peptide]
neurite degeneration ([1]; listed as 190-208 peptide): significant rescue from Aβ-induced neurite degeneration | neurite degeneration ([1]; listed as G3BP1 190-208): prevented neurite degeneration | number of flag-TDP43 granules greater than 2 μm^2 per 100 μm of neurite [2]: reversed | number of flag-TDP43 granules greater than 2 μm^2 per 100 μm of neurite ([2]; listed as 190-208 G3BP1 peptide): decreased | number of large TIA1-GFP granules (>2 μm^2) in neurites [2]: decrease in the number of large granules | number of large TIA1-GFP granules (>2 μm^2) in neurites ([2]; listed as 190-208 G3BP1): decreased | number of endogenous TIA1 and G3BP1 granules greater than 2 μm^2 per 100 μm of neurite [2]: reverses the increase number of these larger granules | number of endogenous TIA1 and G3BP1 granules greater than 2 μm^2 per 100 μm of neurite ([2]; listed as 190-208): significantly decreased levels of TIA1 and G3BP1 granules | puromycin incorporation in DRG axons (axonal protein synthesis) [3]: significantly increased puromycin incorporation | puromycin incorporation in DRG axons (axonal protein synthesis) ([3]; listed as 190-208 peptide): significant increase in axonal protein synthesis | density of axonal G3BP1-mCherry aggregates along 100 μm axon [4]: striking decrease | motility of remaining G3BP1-mCherry aggregates [4]: greater motility | size of G3BP1-mCherry aggregates (SG-like structures) [4]: significantly smaller | penetration into cell bodies and axons [5]: penetration
